Experimental findings from BindingDB's records for doi:10.1021/acschembio.6b00782 (University of Michigan, 2017) are described below.

Each structure is given as a SMILES string.

The target in assay [1] is T1, Paired box protein Pax-2 [1-81] (Human, UniProt Q02962).
T1 construct: 1-81
The experiment in a line: Biolayer Interferometry Binding Assay. How it is done:
After biotinylation, the protein was bound to saturation to the biosensor of an Octet RED Multichannel platform (ForteBio). All binding and equilibration was done in PBS with 0.1% DMSO. For binding to the compound, sensors were incubated for 300s in EG1 at the following concentrations: 0.5, 1, 2, 4, 8, 16, 31, 62, 125, and 250 μM. Disassociation was then measured for 350 s in PBS to determine affinity constants. Kd is calculated from steady state analysis.

The target of assay [2] is T1, Paired box protein Pax-2 [1-81]. The experiment in a line: Biolayer Interferometry Binding Assay. On the procedure:
After biotinylation, the protein was bound to saturation to the biosensor of an Octet RED Multichannel platform (ForteBio). All binding and equilibration was done in PBS with 0.1% DMSO. For binding to the compound, sensors were incubated for 300s in EG1 at the following concentrations: 0.5, 1, 2, 4, 8, 16, 31, 62, 125, and 250 μM. Disassociation was then measured for 350 s in PBS to determine affinity constants. Kd is calculated from Kon and Koff.
This is another data set of the same source.

T1 sequence (Q02962 1-81): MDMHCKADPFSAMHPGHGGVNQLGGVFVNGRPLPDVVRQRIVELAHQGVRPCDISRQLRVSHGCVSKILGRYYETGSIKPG

As a reminder, the Kd is the free concentration of one partner at which half of the binding sites on the other are occupied at equilibrium, for simple one-to-one binding. `COc1ccccc1C(=O)Nc1ccc(C(=O)Nc2ccccc2C(=O)O)cc1` [EG1]: the Kd in assay [1] amounted to 1.5 µM; in assay [2] it was 1.35 µM.
